In publication PMC10584170, “Machine learning-based phenotypic imaging to characterise the targetable biology of Plasmodium falciparum male gametocytes for the development of transmission-blocking antimalarials” (PLOS Pathogens, 2023):
Where two headings read alike, the source gives them in different places.

Key:
[1] = tested on: P. falciparum male gametocytes; experiment: P. falciparum Dual Gamete Formation Assay (PfDGFA), male readout (exflagellation); type: cell-based, Plasmodium falciparum NF54; conditions: for Selectivity Ratio M: HepG2 Tox50 versus male IC50; for inhibition at 2 µM / IC50: Plasmodium falciparum; for IC50: PfDGFA, 24 h incubation with gametocytes before induction, exflagellation readout, read-out: Male IC50; for Activity: hit = >50% inhibition in male or female readout in at least 3 replicates, 0 = no class assigned
Protocol: (§1) P. falciparum NF54 (originally isolated from an imported malaria case in the Netherlands in the 1980s; BEI Resources, cat. No. MRA-1000) strain asexual parasites were maintained between 0.3–5% parasitaemia by regular passage in complete culture medium (RPMI supplemented with 25 mM HEPES, 50 μg ml^−1 hypoxanthine, 4.8 g l^−1 NaHCO3, 2mM L-glutamine, 5% pooled type AB serum, 0.5% Albumax II (Gibco)) at 4% haematocrit in washed whole blood (National Blood and Transfusion Service or Centro de Transfusiones de la Comunidad de Madrid CTCM) under a 1% O2/3% CO2/96% N2 environment. Gametocytes were induced by seeding culture flasks at 2% parasitaemia/4% haematocrit and subjecting them to daily medium changes for 14 days whilst maintaining a temperature of 37°C at all times. On Day 14, the maturity of gametocytes was assessed by quantifying male gametogenesis (exflagellation). A 20 μl sample of gametocyte culture was mixed with equal volume of ookinete medium (complete culture medium supplemented with 0.1 μM xanthurenic acid) at room temperature and transferred to a haemocytometer. After 20 min at room temperature, exflagellation was accurately quantified as described in Delves et al. 2016 [17].
(§2) The Pf DGFA was performed as described in Delves et al. 2016 [17]. […] Plates were then incubated for 24 h at 37°C in a humidified box under a 1% O2/3% CO2/96% N2 gas mix. Gametogenesis was triggered by addition of 10 μl per well of ookinete medium + 0.27 μg ml^-1 Cy3-labelled anti-Pfs25 antibody. Plates were incubated on a metal block at 4°C for 4 min to ensure even cooling, then 28°C for a further 4 min. Exflagellation was recorded by capturing 10 frames over 1 s under brightfield illumination using a x4 objective with a 1.5x zoom (effectively x6) attached to an automated Nikon Ti fluorescence microscope. After recording exflagellation, plates were incubated for a further 24 h in the dark at 28°C to ensure maximal expression of Pfs25 by female gametes. The plates were then returned to the microscope and female gametes imaged at x6 using fluorescence microscopy.
(§3) Exflagellation centres and female gametes were quantified using custom image analysis pipelines developed within ICY Bioimage Analysis (https://icy.bioimageanalysis.org/).

[2] = tested on: P. falciparum female gametocytes; experiment: P. falciparum Dual Gamete Formation Assay (PfDGFA), female readout (Pfs25-positive female gametes); type: cell-based, Plasmodium falciparum NF54; conditions: for Selectivity ratio F: HepG2 Tox50 versus female IC50; for inhibition at 2 µM / IC50: Plasmodium falciparum; for IC50: PfDGFA, 24 h incubation with gametocytes before induction, female gamete readout, read-out: Female IC50
Protocol: as §1, §2, §3

[3] = 2µM, 24h preincubation with gametocytes prior to induction of gametogenesis, average of replicates
[4] = 2µM, 24h preincubation with gametocytes prior to induction of gametogenesis, replicate R1
[5] = 2µM, 24h preincubation with gametocytes prior to induction of gametogenesis, replicate R3
[6] = 2µM, 24h preincubation with gametocytes prior to induction of gametogenesis, replicate R4
[7] = 2µM, 24h preincubation, hits selected on >50% inhibition in the male readout across replicates
[8] = PfDGFA at 2µM, 24h preincubation
[9] = 2µM, 24h preincubation, hits selected on >50% inhibition in the female readout across replicates
[10] = PfDGFA at 2µM, 24h preincubation with gametocytes prior to induction of gametogenesis, replicate R1
[11] = PfDGFA at 2µM, 24h preincubation with gametocytes prior to induction of gametogenesis, replicate R4
[12] = PfDGFA at 2µM, 24h preincubation, average of replicates
[13] = PfDGFA at 2µM, 24h preincubation with gametocytes prior to induction of gametogenesis, replicate R3

| SMILES | Average inhibition male (%) [1, 3] [%] | % inhibition male (individual replicates) R1 [1, 4] [%] | % inhibition male (individual replicates) R3 [1, 5] [%] | % inhibition male (individual replicates) R4 [1, 6] [%] | HitlevelM [1, 7] | Activity [1, 8] | Average inhibition female (%) [2, 3] [%] | % inhibition female (individual replicates) R1 [2, 4] [%] | % inhibition female (individual replicates) R3 [2, 5] [%] | % inhibition female (individual replicates) R4 [2, 6] [%] | HitlevelF [2, 9] | % inhibition male (individual replicates) R1 [1, 10] [%] | % inhibition male (individual replicates) R4 [1, 11] [%] | Average inhibition male (%) [1, 12] [%] | % inhibition female (individual replicates) R1 [2, 10] [%] | % inhibition female (individual replicates) R3 [2, 13] [%] | % inhibition female (individual replicates) R4 [2, 11] [%] | Average inhibition female (%) [2, 12] [%] | also measured |
| --- | --- | --- | --- | --- | --- | --- | --- | --- | --- | --- | --- | --- | --- | --- | --- | --- | --- | --- | --- |
| FC(F)(F)c1cccc(NC(=S)NN=Cc2ccccn2)c1 [TCMDC-123509] | – | – | – | – | – | – | – | – | – | – | – | – | – | – | – | – | – | – | Selectivity Ratio M [1]: 143.09; inhibition at 2 µM ([1]; 2µM, 24h preincubation with gametocytes, average of replicates, read-out: Average inhibition male (%)): 94.6%; inhibition at 2 µM ([1]; 2µM, 24h preincubation with gametocytes, replicate R1, read-out: % inhibition male (individual replicates) R1): 103%; inhibition at 2 µM ([1]; 2µM, 24h preincubation with gametocytes, replicate R2, read-out: % inhibition male (individual replicates) R2): 94.6%; inhibition at 2 µM ([1]; 2µM, 24h preincubation with gametocytes, replicate R3, read-out: % inhibition male (individual replicates) R3): 102%; inhibition at 2 µM ([1]; 2µM, 24h preincubation with gametocytes, replicate R4, read-out: % inhibition male (individual replicates) R4): 79.6%; IC50 [1]: 700 nM; Selectivity ratio F [2]: 142.25; inhibition at 2 µM ([2]; 2µM, 24h preincubation with gametocytes, average of replicates, read-out: Average inhibition female (%)): 50.5%; inhibition at 2 µM ([2]; 2µM, 24h preincubation with gametocytes, replicate R1, read-out: % inhibition female (individual replicates) R1): 35.3%; inhibition at 2 µM ([2]; 2µM, 24h preincubation with gametocytes, replicate R2, read-out: % inhibition female (individual replicates) R2): 76.8%; inhibition at 2 µM ([2]; 2µM, 24h preincubation with gametocytes, replicate R3, read-out: % inhibition female (individual replicates) R3): 45%; inhibition at 2 µM ([2]; 2µM, 24h preincubation with gametocytes, replicate R4, read-out: % inhibition female (individual replicates) R4): 45%; IC50 [2]: 700 nM |
| CC1(C)N=C(N)N=C(N)N1c1ccc(Oc2ccc(Cl)cc2)c(Cl)c1 [TCMDC-123522] | -4.1 | 6.1 | -10.9 | -16.5 | 0 | 0 | 4.9 | 11.0 | 16.4 | -0.18 | 0 | – | – | – | – | – | – | – | – |
| Cc1cc(N2CCN(C)CC2)nc2ccc(NC(=O)Cc3cccc(C(F)(F)F)c3)cc12 [TCMDC-123590] | – | – | – | – | – | – | – | – | – | – | – | 6.9 | -7.6 | 3.5 | 1.4 | 3.7 | -0.7 | 2.2 | – |
| Cc1ccc(-c2nc3cc(NC(=O)c4ccc([N+](=O)[O-])o4)ccc3o2)cc1Cl [TCMDC-123657] | 5.4 | 3.2 | -3.8 | 12.9 | 0 | 0 | 15.9 | 10.9 | 11.0 | 33.8 | 0 | – | – | – | – | – | – | – | – |
| CC(=O)c1cccc(S(=O)(=O)NCCCNc2nc3cc(C)cc(C)c3cc2C#N)c1 [TCMDC-123734] | -13.5 | -6.4 | -3.8 | -42.5 | 0 | 0 | 6.2 | 1.3 | -13.6 | 33.9 | 0 | – | – | – | – | – | – | – | – |
| COc1ccc(C2CC(c3cccs3)=NN2C(=O)c2ccccc2)cc1OC (stereo not drawn) [TCMDC-123755] | – | – | – | – | – | – | – | – | – | – | – | -16.5 | 27.6 | 0.438 | 2.3 | -20.6 | -7.2 | -3.5 | % inhibition male (individual replicates) R3 [1, 13]: -10.3% |
| OC1CCN(c2cc(-c3ccccn3)nc(-c3ccccn3)n2)CC1 [TCMDC-123786] | – | – | – | – | – | – | – | – | – | – | – | -14.8 | -28.8 | -7.4 | -1.4 | -6.8 | 3.7 | 0.215 | – |
| Cc1cc(C(=O)OCC(=O)Nc2c(C)n(C)n(-c3ccccc3)c2=O)c(C)n1-c1ccc(F)cc1 [TCMDC-123794] | – | – | – | – | – | – | – | – | – | – | – | – | – | – | – | – | – | – | HitlevelM ([1]; 2µM, 24h preincubation, number of replicates with >50% inhibition in the male readout): 3; Selectivity Ratio M [1]: 52.65; inhibition at 2 µM ([1]; 2µM, 24h preincubation with gametocytes prior to induction of gametogenesis, average of replicates, read-out: Average inhibition male (%)): 57.2%; inhibition at 2 µM ([1]; 2µM, 24h preincubation with gametocytes prior to induction of gametogenesis, replicate R1, read-out: % inhibition male (individual replicates) R1): 63.3%; inhibition at 2 µM ([1]; 2µM, 24h preincubation with gametocytes prior to induction of gametogenesis, replicate R2, read-out: % inhibition male (individual replicates) R2): 40.1%; inhibition at 2 µM ([1]; 2µM, 24h preincubation with gametocytes prior to induction of gametogenesis, replicate R3, read-out: % inhibition male (individual replicates) R3): 55.8%; inhibition at 2 µM ([1]; 2µM, 24h preincubation with gametocytes prior to induction of gametogenesis, replicate R4, read-out: % inhibition male (individual replicates) R4): 69.6%; IC50 [1]: 1900 nM; HitlevelF ([2]; 2µM, 24h preincubation, number of replicates with >50% inhibition in the female readout): 2; Selectivity ratio F [2]: 69.69; inhibition at 2 µM ([2]; 2µM, 24h preincubation with gametocytes prior to induction of gametogenesis, average of replicates, read-out: Average inhibition female (%)): 48.8%; inhibition at 2 µM ([2]; 2µM, 24h preincubation with gametocytes prior to induction of gametogenesis, replicate R1, read-out: % inhibition female (individual replicates) R1): 29.7%; inhibition at 2 µM ([2]; 2µM, 24h preincubation with gametocytes prior to induction of gametogenesis, replicate R2, read-out: % inhibition female (individual replicates) R2): 52.6%; inhibition at 2 µM ([2]; 2µM, 24h preincubation with gametocytes prior to induction of gametogenesis, replicate R3, read-out: % inhibition female (individual replicates) R3): 40.8%; inhibition at 2 µM ([2]; 2µM, 24h preincubation with gametocytes prior to induction of gametogenesis, replicate R4, read-out: % inhibition female (individual replicates) R4): 72.3%; IC50 [2]: 1430 nM |
| N#CCSc1nnc(-c2ccccc2)c2ccccc12 [TCMDC-123867] | – | – | – | – | – | – | – | – | – | – | – | -3.0 | -3.8 | 1.3 | 9.7 | -27.1 | 6.9 | -4.3 | % inhibition male (individual replicates) R3 [1, 13]: 10.5% |
